Active and inactive are the calls of the source. The calls are words filed in the database; no cut-off is given here.
Columns and labels:
[1] = test system: Lewis lung carcinoma cell line; assay: Antitumor activity against mouse LLC cells xenografted in C57BL/6 mouse assessed as tumor growth inhibition at 6 mg/kg, ip qd for 15 days relative to control; type: functional; conditions: 360 h, route intraperitoneal, read-out: GI
[2] = test system: Lewis lung carcinoma cell line; assay: Antimetastatic activity against mouse LLC cells xenografted in C57BL/6 mouse assessed as inhibition of lung metastasis at 6 mg/kg, ip qd for 15 days relative to control; type: functional, organism-based; parameters: dose 6 mg/kg
Mus musculus [3] = assay: Toxicity in mouse LLC cells xenografted C57BL/6 mouse assessed as decrease in body weight at 6 mg/kg, ip qd for 15 days; type: organism-based; parameters: dose 6 mg/kg, route intraperitoneal; conditions: in vivo, 360 h
Mus musculus [4] = assay: Toxicity in mouse 4T1 cells xenografted […] mouse assessed as decrease in body weight at 3 mg/kg, ip qd for 28 days; type: organism-based; parameters: dose 3 mg/kg, route intraperitoneal; conditions: in vivo, 672 h
4T1 [5] = assay: Antitumor activity against mouse 4T1 cells xenografted in […] mouse assessed as tumor growth inhibition at 3 mg/kg, ip qd for 28 days relative to control; type: functional; conditions: 4T1, ip, 672 h, route intraperitoneal, read-out: GI
4T1 [6] = assay: Antimetastatic activity against mouse 4T1 cells xenografted in […] mouse assessed as inhibition of lung metastasis at 3 mg/kg, ip qd for 28 days; type: functional, organism-based; parameters: dose 3 mg/kg
Mus musculus [7] = assay: Antimetastatic activity against mouse 4T1 cells xenografted in BALB/c mouse assessed as reduction of myeloid derived suppressor cells accumulation in spleen at 3 mg/kg, ip qd for 23 days by flow cytometry analysis relative to control; type: functional; parameters: scale not given: the % may be the effect or the level left; conditions: route intraperitoneal
Mus musculus [8] = assay: Antimetastatic activity against mouse 4T1 cells xenografted in BALB/c mouse assessed as reduction of myeloid derived suppressor cells accumulation in bone marrow at 3 mg/kg, ip qd for 23 days by flow cytometry analysis relative to control; type: functional; parameters: scale not given: the % may be the effect or the level left; conditions: route intraperitoneal

CC(=O)O[C@H]1C(=O)[C@@]2(C)[C@H]([C@H](OC(=O)c3ccccc3)[C@]3(O)C[C@H](OC(=O)[C@H](O)[C@@H](NC(=O)c4ccccc4)c4ccccc4)C(C)=C1C3(C)C)[C@]1(OC(C)=O)CO[C@@H]1C[C@@H]2O [PACLITAXEL]
inhibition in vivo at 6 mg/kg [1]: 26.2% | growth inhibition (GI) [2]: inactive | Activity (Mus musculus [3]): Non-toxic | Activity (Mus musculus [4]): Non-toxic | inhibition in vivo at 3 mg/kg (4T1 [5]): 30.5% | growth inhibition (GI) (4T1 [6]): inactive | Activity (Mus musculus [7]): 46.7% | Activity (Mus musculus [8]): 79.1%
